Like-named read-outs stand apart in the source and are kept apart here.
Test: Pharmacokinetics of acetate of Compound 22 in SD rats with single and repeated administration
Type: in vivo
Settings: for clearance / Vd / AUC(0-t) / half-life / bioavailability / Cmax / C0 / Tmax: rat, plasma; for Tmax: read-out: Tmax (median)
Description: The formulation for Group 5 was prepared before administration on Day 1, and then, divided into daily doses and stored at 5±3° C. After taking out the formulations on the day of administration, the formulations should be let stand at room temperature for at least 30 minutes before administration.
After blood collection, the blood collection tube containing the anticoagulant was turned upside down several times to mix well, and placed on wet ice before centrifugation. Within 60 minutes after blood collection, the samples were centrifuged at 2000 g for 10 minutes at 2-8° C. to separate red blood cells, thereby obtaining plasma samples. The plasma samples were transferred to cryovials and stored at −75±15° C. until analysis.
Blood samples were collected from SD rats at room temperature before administration and within 24 hours after administration. All collected samples were placed on wet ice before centrifugation and stored at −75±15° C. until analysis.
The mass spectrometer was Applied Biosystems/AB Sciex Triple Quad 4500.
Pharmacokinetic data was calculated using the linear logarithmic trapezoidal method, with a weight of 1/(Y*Y). Samples with the sample concentration below the lower limit of quantification were excluded from the calculation of pharmacokinetic parameters. […] The mean time to peak (Tmax) was represented as a median.

In the case of `CC(=O)O.Nc1nc(NCCc2ccc(NC3COC3)cc2)nc2nc(-c3ccco3)nn12` [Acetate of Compound 22, 2-(furan-2-yl)-N5-(4-(oxetane-3-ylamino)phenethyl)-[1,2,4]triazolo[1,5-a][1,3,5]triazine-5,7-diamine acetate], the “exposure ratio between Day 7 and Day 1” value (63 mg/kg daily for 7 consecutive days) is reported as “less than 2”, the F (Group 2 PO 21 mg/kg single, Female) is reported as 70.8 ± 6.75% and the F (Group 2 PO 21 mg/kg single, Male) is reported as 82.2 ± 20.6%. The F (Group 2 PO 21 mg/kg single, Overall) was 76.5 ± 15.1%, the F (Group 3 PO 63 mg/kg single, Female) was 74.1 ± 21.9% and the F (Group 3 PO 63 mg/kg single, Male) was 56.9 ± 1.98%. The F (Group 3 PO 63 mg/kg single, Overall) was 65.5 ± 16.8%, the F (Group 4 PO 189 mg/kg single, Female) was 44.9 ± 10.1% and the F (Group 4 PO 189 mg/kg single, Male) was 50.9 ± 5.28%. For the same compound, the F (Group 4 PO 189 mg/kg single, Overall) was 47.9 ± 7.91%, the F (Group 5 PO 63 mg/kg repeated, Day 1, Female) was 77.0 ± 12.5% and the F (Group 5 PO 63 mg/kg repeated, Day 1, Male) was 51.9 ± 20.5%. For the same compound, the F (Group 5 PO 63 mg/kg repeated, Day 1, Overall) was 64.5 ± 20.5%, the clearance (Sprague-Dawley (SD), intravenous injection 2.0 mg/kg, read-out: clearance rate (CL)) was 6.02 mL/min/kg and the Vd (Sprague-Dawley (SD), intravenous injection 2.0 mg/kg, read-out: steady-state apparent volume of distribution (Vss)) was 0.457 L/kg. It also gave an AUC(0-t) (Sprague-Dawley (SD), iv, 2 mg/kg, intravenous injection 2.0 mg/kg, read-out: drug exposure AUC0-t) of 5.36 µg·h/mL, a half-life (Sprague-Dawley (SD), iv, 2 mg/kg, intravenous injection 2.0 mg/kg, read-out: half-life T1/2 (converted)) of 3.39 h and a bioavailability (Sprague-Dawley (SD), oral 21 mg/kg) of 76.5%. The bioavailability (Sprague-Dawley (SD), oral 63 mg/kg) was 65.5%, the bioavailability (Sprague-Dawley (SD), oral 189 mg/kg) was 47.9% and the AUC(0-t) (Sprague-Dawley (SD), oral, 63 mg/kg, 63 mg/kg daily for 7 consecutive days, Day 1, read-out: AUC0-t) was 111 µg·h/mL. For the same compound, the AUC(0-t) (Sprague-Dawley (SD), oral, 63 mg/kg, 63 mg/kg daily for 7 consecutive days, Day 7, read-out: AUC0-t) was 127 µg·h/mL, the AUC(0-t) (Sprague-Dawley (SD), po, 21 mg/kg, oral 21 mg/kg, read-out: drug exposure (AUC0-t)) was 42.8 µg·h/mL and the Cmax (Sprague-Dawley (SD), po, 21 mg/kg, oral 21 mg/kg, read-out: maximum plasma concentration (Cmax)) was 18400 ng/mL. For the same compound, the AUC(0-t) (Sprague-Dawley (SD), po, 63 mg/kg, oral 63 mg/kg, read-out: drug exposure (AUC0-t)) was 112 µg·h/mL, the Cmax (Sprague-Dawley (SD), po, 63 mg/kg, oral 63 mg/kg, read-out: maximum plasma concentration (Cmax)) was 27400 ng/mL and the AUC(0-t) (Sprague-Dawley (SD), po, 189 mg/kg, oral 189 mg/kg, read-out: drug exposure (AUC0-t)) was 241 µg·h/mL. For the same compound, the Cmax (Sprague-Dawley (SD), po, 189 mg/kg, oral 189 mg/kg, read-out: maximum plasma concentration (Cmax)) was 51800 ng/mL, the C0 (Sprague-Dawley, Group 1 IV 2.0 mg/kg single, Female) was 8140 ± 820 ng/mL and the clearance (Sprague-Dawley, Group 1 IV 2.0 mg/kg single, Female, read-out: CL) was 5.66 ± 0.166 mL/min/kg. For the same compound, the Vd (Sprague-Dawley, Group 1 IV 2.0 mg/kg single, Female, read-out: Vss) was 0.465 ± 0.122 L/kg, the C0 (Sprague-Dawley, Group 1 IV 2.0 mg/kg single, Male) was 7060 ± 699 ng/mL and the clearance (Sprague-Dawley, Group 1 IV 2.0 mg/kg single, Male, read-out: CL) was 6.56 mL/min/kg. It also gave a Vd (Sprague-Dawley, Group 1 IV 2.0 mg/kg single, Male, read-out: Vss) of 0.445 L/kg, a C0 (both sexes, Sprague-Dawley, Group 1 IV 2.0 mg/kg single, Overall) of 7600 ± 905 ng/mL and a clearance (both sexes, Sprague-Dawley, Group 1 IV 2.0 mg/kg single, Overall, read-out: CL) of 6.02 ± 0.668 mL/min/kg. The Vd (both sexes, Sprague-Dawley, Group 1 IV 2.0 mg/kg single, Overall, read-out: Vss) was 0.457 ± 0.088 L/kg, the AUC(0-t) (both sexes, Sprague-Dawley, iv, 2 mg/kg, Group 1 IV 2.0 mg/kg single, Overall, read-out: AUC0-t) was 5.36 ± 0.664 µg·h/mL and the half-life (both sexes, Sprague-Dawley, iv, 2 mg/kg, Group 1 IV 2.0 mg/kg single, Overall, read-out: T1/2 (converted)) was 3.39 ± 2.9 h. The AUC(0-t) (both sexes, Sprague-Dawley, po, 21 mg/kg, Group 2 PO 21 mg/kg single, Overall, read-out: AUC0-t) was 42.8 ± 7.21 µg·h/mL, the Cmax (both sexes, Sprague-Dawley, po, 21 mg/kg, Group 2 PO 21 mg/kg single, Overall, read-out: Cmax) was 18400 ± 4040 ng/mL and the half-life (both sexes, Sprague-Dawley, po, 21 mg/kg, Group 2 PO 21 mg/kg single, Overall, read-out: T1/2 (converted)) was 3.47 ± 0.596 h. For the same compound, the Tmax (both sexes, Sprague-Dawley, po, 21 mg/kg, Group 2 PO 21 mg/kg single, Overall) was 0.5 h, the AUC(0-t) (both sexes, Sprague-Dawley, po, 63 mg/kg, Group 3 PO 63 mg/kg single, Overall, read-out: AUC0-t) was 112 ± 37.2 µg·h/mL and the Cmax (both sexes, Sprague-Dawley, po, 63 mg/kg, Group 3 PO 63 mg/kg single, Overall, read-out: Cmax) was 27400 ± 7200 ng/mL. The half-life (both sexes, Sprague-Dawley, po, 63 mg/kg, Group 3 PO 63 mg/kg single, Overall, read-out: T1/2 (converted)) was 3.01 ± 0.63 h, the Tmax (both sexes, Sprague-Dawley, po, 63 mg/kg, Group 3 PO 63 mg/kg single, Overall) was 1 h and the AUC(0-t) (both sexes, Sprague-Dawley, po, 63 mg/kg, Group 5 PO 63 mg/kg repeated, Day 1, Overall, read-out: AUC0-t) was 111 ± 42.1 µg·h/mL. The Cmax (both sexes, Sprague-Dawley, po, 63 mg/kg, Group 5 PO 63 mg/kg repeated, Day 1, Overall, read-out: Cmax) was 28800 ± 11400 ng/mL, the half-life (both sexes, Sprague-Dawley, po, 63 mg/kg, Group 5 PO 63 mg/kg repeated, Day 1, Overall, read-out: T1/2 (converted)) was 3.33 ± 1.68 h and the Tmax (both sexes, Sprague-Dawley, po, 63 mg/kg, Group 5 PO 63 mg/kg repeated, Day 1, Overall) was 2 h.

From patent US20230048888A1, “USE OF TRIAZOLOTRIAZINE DERIVATIVE IN TREATMENT OF DISEASES” (ZHEJIANG VIMGREEN PHARMACEUTICALS, LTD., priority 2019, published 2023)
